System: human normal peripheral blood monocyte
Experiment: Influence of the artificially synthesized peptide on normal cell genes: coculture 7 hr, DNA chip system (Clontech), about 55000 human genes (Table 4)
Format: cell-based
Conditions: Suppressed Gene, Immune System Gene
Protocol: (a) The peptide obtained in Example 3 was added to a human normal peripheral blood monocyte culture system (10 to 100 μg peptide/1×10^6 to 1×10^7 monocytes), and they were cocultured for 7 hr. Then, mRNA was extracted from the monocytes and was applied to analysis for up-regulation and down-regulation in respect to about 55000 human genes by using DNA chip system (Clontech).

[1] = Gene No. 12812, ovarian carcinoma immunoreactive antigen (OCIA)
[2] = Gene No. 14949, programmed cell death 10 (PDCD10), transcript variant 1
[3] = Gene No. 15907, intercellular adhesion molecule 2 (ICAM2)
[4] = Gene No. 15994, beta-2-microglobulin (B2M)
[5] = Gene No. 16478, tumor necrosis factor (ligand) superfamily, member 12 (TNFSF12), transcript variant 1, mRNA
[6] = Gene No. 16756, major histocompatibility complex, class I, E (HLA-E)
[7] = Gene No. 17177, tumor necrosis factor superfamily, member 5-induced protein 1 (TNFSF5IP1)
[8] = Gene No. 18139, major histocompatibility complex, class II, DQ alpha 1 (HLA-DQA1)
[9] = Gene No. 18884, (clone 38-1) MHC class I mRNA fragment.
[10] = Gene No. 20551, IL2-inducible T-cell kinase (ITK)
[11] = Gene No. 20881, natural killer cell transcript 4 (NK4)
[12] = Gene No. 21487, programmed cell death 2 (PDCD2), transcript variant 1
[13] = Gene No. 22326, immune associated nucleotide 2 (hIAN2)
[14] = Gene No. 22789, CASP8 and FADD-like apoptosis regulator (CFLAR)
[15] = Gene No. 22868, lymphocyte cytosolic protein 2 (SH2 domain containing leukocyte protein of 76 kDa) (LCP2)
[16] = Gene No. 22890, NK inhibitory receptor precursor (NKIR)
[17] = Gene No. 23827, major histocompatibility complex, class II, DM alpha (HLA-DMA)
[18] = Gene No. 24440, THYMUS cDNA clone CS0CAP007YL06 5-PRIME
[19] = Gene No. 24969, CD69 antigen (p60, early T-cell activation antigen) (CD69)
[20] = Gene No. 34736, adhesion molecule AMICA (AMICA)
[21] = Gene No. 37068, immediate early response 2 (IER2)
[22] = Gene No. 37445, mal, T-cell differentiation protein (MAL), transcript variant d
[23] = Gene No. 37834, proteasome (prosome, macropain) 26S subunit, non-ATPase, 1 (PSMD1)
[24] = Gene No. 38103, tumor necrosis factor receptor superfamily, member 7 (TNFRSF7)
[25] = Gene No. 38879, interferon stimulated gene 20 kDa (ISG20)
[26] = Gene No. 39926, thymosin-like 6 (TMSL6)
[27] = Gene No. 39991, lymphotoxin beta (TNF superfamily, member 3) (LTB), transcript variant 2
[28] = Gene No. 40727, linker for activation of T cells (LAT)
[29] = Gene No. 41726, apoptosis-associated speck-like protein containing a CARD (ASC), transcript variant 1
[30] = Gene No. 41803, programmed cell death 2 (PDCD2), transcript variant 2
[31] = Gene No. 41817, major histocompatibility complex, class I, F (HLA-F)
[32] = Gene No. 42474, programmed cell death 6 (PDCD6)
[33] = Gene No. 42573, T-cell activation protein (PGR1)
[34] = Gene No. 42614, killer cell lectin-like receptor subfamily K, member 1 (KLRK1)
[35] = Gene No. 42661, proteasome (prosome, macropain) subunit, beta type, 9 (large multifunctional protease 2) (PSMB9), transcript variant 1
[36] = Gene No. 42680, proteasome (prosome, macropain) 26S subunit, ATPase, 4 (PSMC4), transcript variant 1
[37] = Gene No. 42813, granzyme A (granzyme 1, cytotoxic T-lymphocyte-associated serine esterase 3) (GZMA)
[38] = Gene No. 43032, interferon, gamma-inducible protein 16 (IFI16)
[39] = Gene No. 45767, HLA-B associated transcript 1 (BAT1), transcript variant 1
[40] = Gene No. 46186, cell death-regulatory protein GRIM19 (GRIM19)
[41] = Gene No. 47689, killer cell lectin-like receptor subfamily B, member 1 (KLRB1)
[42] = Gene No. 47973, CD8 antigen, beta polypeptide 1 (p37) (CD8B1), transcript variant 5
[43] = Gene No. 49170, interferon gamma receptor 2 (interferon gamma transducer 1) (IFNGR2)
[44] = Gene No. 49586, interleukin-1 receptor-associated kinase 4 (IRAK4)
[45] = Gene No. 49622, intercellular adhesion molecule 3 (ICAM3)
[46] = Gene No. 51004, tumor necrosis factor (ligand) superfamily, member 10 (TNFSF10)
[47] = Gene No. 52071, interferon (alpha, beta and omega) receptor 1 (IFNAR1)
[48] = Gene No. 52342, apoptosis-related protein PNAS-1 (FLJ39616)
[49] = Gene No. 52539, major histocompatibility complex, class II, DR alpha (HLA-DRA)
[50] = Gene No. 53172, transforming growth factor, beta 1 (Camurati-Engelmann disease) (TGFB1)

the Peptide (QPQFGRRMESK; Human squamous cell carcinoma)
Suppression Ratio (Gene No. 11651, implantation-associated protein (DKFZp564K142)): 89.16
Expression Amount after Treatment with the Peptide [1]: 24.53
Suppression Ratio [1]: 47.97
Expression Amount after Treatment with the Peptide [2]: 25.27
Suppression Ratio [2]: 40.37
Expression Amount after Treatment with the Peptide [3]: 6.364
Suppression Ratio [3]: 143.4
Expression Amount after Treatment with the Peptide [4]: 239.5
Suppression Ratio [4]: 47.59
Expression Amount after Treatment with the Peptide [5]: 6.018
Suppression Ratio [5]: 110.2
Expression Amount after Treatment with the Peptide [6]: 2.806
Suppression Ratio [6]: 140.8
Expression Amount after Treatment with the Peptide [7]: 26.16
Suppression Ratio [7]: 39.51
Expression Amount after Treatment with the Peptide [8]: 33.12
Suppression Ratio [8]: 80.32
Expression Amount after Treatment with the Peptide [9]: 3.387
Suppression Ratio [9]: 100.2
Expression Amount after Treatment with the Peptide [10]: 22.93
Suppression Ratio [10]: 122.6
Expression Amount after Treatment with the Peptide [11]: 38.17
Suppression Ratio [11]: 172.9
Expression Amount after Treatment with the Peptide [12]: 9.909
Suppression Ratio [12]: 39.12
Expression Amount after Treatment with the Peptide [13]: 9.743
Suppression Ratio [13]: 113.2
Expression Amount after Treatment with the Peptide [14]: 9.725
Suppression Ratio [14]: 75.25
Expression Amount after Treatment with the Peptide [15]: 6.525
Suppression Ratio [15]: 82.73
Expression Amount after Treatment with the Peptide [16]: 9.902
Suppression Ratio [16]: 112.4
Expression Amount after Treatment with the Peptide [17]: 29.78
Suppression Ratio [17]: 80.72
Expression Amount after Treatment with the Peptide [18]: 0.2348
Suppression Ratio [18]: 59.63
Expression Amount after Treatment with the Peptide [19]: 25.71
Suppression Ratio [19]: 95.14
Expression Amount after Treatment with the Peptide [20]: 29.08
Suppression Ratio [20]: 136.7
Expression Amount after Treatment with the Peptide [21]: 57.38
Suppression Ratio [21]: 121.3
Expression Amount after Treatment with the Peptide [22]: 14.875
Suppression Ratio [22]: 112.4
Expression Amount after Treatment with the Peptide [23]: 14.11
Suppression Ratio [23]: 38.69
Expression Amount after Treatment with the Peptide [24]: 5.778
Suppression Ratio [24]: 121.8
Expression Amount after Treatment with the Peptide [25]: 31.94
Suppression Ratio [25]: 91.84
Expression Amount after Treatment with the Peptide [26]: 317.7
Suppression Ratio [26]: 54.8
Expression Amount after Treatment with the Peptide [27]: 17.77
Suppression Ratio [27]: 135.9
Expression Amount after Treatment with the Peptide [28]: 28.17
Suppression Ratio [28]: 42.75
Expression Amount after Treatment with the Peptide [29]: 33.51
Suppression Ratio [29]: 134.7
Expression Amount after Treatment with the Peptide [30]: 0.82
Suppression Ratio [30]: 108.8
Expression Amount after Treatment with the Peptide [31]: 98.43
Suppression Ratio [31]: 107.9
Expression Amount after Treatment with the Peptide [32]: 17.04
Suppression Ratio [32]: 68.35
Expression Amount after Treatment with the Peptide [33]: 15.75
Suppression Ratio [33]: 60.53
Expression Amount after Treatment with the Peptide [34]: 4.848
Suppression Ratio [34]: 129.2
Expression Amount after Treatment with the Peptide [35]: 39.14
Suppression Ratio [35]: 38.48
Expression Amount after Treatment with the Peptide [36]: 42.03
Suppression Ratio [36]: 38.46
Expression Amount after Treatment with the Peptide [37]: 38.51
Suppression Ratio [37]: 115.5
Expression Amount after Treatment with the Peptide [38]: 4.446
Suppression Ratio [38]: 116.8
Expression Amount after Treatment with the Peptide [39]: 18.125
Suppression Ratio [39]: 130.2
Expression Amount after Treatment with the Peptide [40]: 25.55
Suppression Ratio [40]: 55.07
Expression Amount after Treatment with the Peptide [41]: 72.08
Suppression Ratio [41]: 52.77
Expression Amount after Treatment with the Peptide [42]: 9.639
Suppression Ratio [42]: 153.6
Expression Amount after Treatment with the Peptide [43]: 10.09
Suppression Ratio [43]: 70.7
Expression Amount after Treatment with the Peptide [44]: 2.716
Suppression Ratio [44]: 91.49
Expression Amount after Treatment with the Peptide [45]: 39.68
Suppression Ratio [45]: 86.23
Expression Amount after Treatment with the Peptide [46]: 8.725
Suppression Ratio [46]: 39.65
Expression Amount after Treatment with the Peptide [47]: 9.429
Suppression Ratio [47]: 44.09
Expression Amount after Treatment with the Peptide [48]: 18.72
Suppression Ratio [48]: 64.11
Expression Amount after Treatment with the Peptide [49]: 158.7
Suppression Ratio [49]: 109.3
Expression Amount after Treatment with the Peptide [50]: 6.56
Suppression Ratio [50]: 88.02

— patent US8173788B2, “Peptide having ability to activate cancer-related gene” (priority 2005, dated 2012)
